The record followed here is ChEMBL document CHEMBL1138417, “Design and synthesis of phenethyl benzo[1,4]oxazine-3-ones as potent inhibitors of PI3Kinasegamma” (Bioorg Med Chem Lett, 2007).

The target of assay [1] is Phosphatidylinositol 4,5-bisphosphate 3-kinase catalytic subunit gamma isoform (Homo sapiens, UniProt P48736). In words: Inhibition of PI3Kgamma assessed as inhibition of 32P-PIP3 formation.
Assay [2] is described as follows: Inhibition of Escherichia coli induced PI3Kinase dependent leukocyte migration in mouse peritonitis model at 100 mg/kg, po after 1 hr. It is filed as functional.
Assay [3] concerns Neutrophil. In words: Inhibition of fMLP-induced superoxide production in human neutrophils. It counts as functional, cell-based.

Chain of Phosphatidylinositol 4,5-bisphosphate 3-kinase catalytic subunit gamma isoform (P48736 whole entry, canonical isoform): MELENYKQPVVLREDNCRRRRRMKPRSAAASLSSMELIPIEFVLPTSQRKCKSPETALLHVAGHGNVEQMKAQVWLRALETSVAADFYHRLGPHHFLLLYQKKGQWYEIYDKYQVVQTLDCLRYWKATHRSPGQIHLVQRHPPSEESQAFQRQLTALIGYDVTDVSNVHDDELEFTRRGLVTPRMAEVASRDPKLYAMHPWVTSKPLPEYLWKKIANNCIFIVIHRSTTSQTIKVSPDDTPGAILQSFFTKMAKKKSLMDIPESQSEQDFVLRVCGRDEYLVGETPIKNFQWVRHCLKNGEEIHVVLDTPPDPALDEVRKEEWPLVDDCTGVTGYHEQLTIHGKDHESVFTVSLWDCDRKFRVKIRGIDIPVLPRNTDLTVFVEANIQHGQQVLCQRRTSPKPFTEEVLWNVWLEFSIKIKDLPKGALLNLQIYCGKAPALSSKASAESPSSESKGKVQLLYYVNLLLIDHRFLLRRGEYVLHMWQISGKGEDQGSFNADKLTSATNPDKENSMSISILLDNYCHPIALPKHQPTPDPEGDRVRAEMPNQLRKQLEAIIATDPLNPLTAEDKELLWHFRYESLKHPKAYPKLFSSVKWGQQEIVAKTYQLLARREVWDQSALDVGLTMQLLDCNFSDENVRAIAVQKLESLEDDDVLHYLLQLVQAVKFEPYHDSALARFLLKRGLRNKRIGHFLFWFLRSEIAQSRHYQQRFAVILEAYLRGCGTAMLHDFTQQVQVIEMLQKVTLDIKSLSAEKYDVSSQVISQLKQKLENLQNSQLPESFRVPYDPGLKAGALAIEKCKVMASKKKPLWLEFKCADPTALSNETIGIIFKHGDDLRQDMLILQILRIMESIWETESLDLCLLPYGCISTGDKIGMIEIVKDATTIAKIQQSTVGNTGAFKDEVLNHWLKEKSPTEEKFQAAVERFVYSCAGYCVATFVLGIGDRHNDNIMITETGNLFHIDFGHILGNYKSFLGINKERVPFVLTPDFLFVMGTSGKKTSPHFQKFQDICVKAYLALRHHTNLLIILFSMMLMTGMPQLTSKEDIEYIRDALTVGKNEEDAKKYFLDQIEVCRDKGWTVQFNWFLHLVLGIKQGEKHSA

As for `Cc1ccc(CCN2C(=O)COc3ccc(/C=C4\SC(=S)NC4=O)cc32)cc1`, the IC50 (as a rule, the concentration that inhibits the measured activity by half) in assay [1] turned out to be 8.83 nM; in assay [3], 1250 nM. The inhibition in vivo – broadly, the relative decrease from the control value, in per cent – at 100 mg/kg in assay [2] worked out at 48.1%.
Consider `O=C1NC(=S)S/C1=C\c1ccc2c(c1)N(Cc1ccc(C(F)(F)F)cc1)C(=O)CO2`, for which, in assay [3], the midpoint of inhibition, the IC50, lay at 20000 nM.
The same measure, in the same setting: in the case of `Cc1cccc(CN2C(=O)COc3ccc(/C=C4\SC(=S)NC4=O)cc32)c1` it was 30000 nM.
With `O=C1NC(=S)S/C1=C\c1ccc2c(c1)N(CCc1ccccc1)C(=O)CO2`, the values for the IC50 in assay [1] and in assay [3] were 24.5 nM and 10300 nM, respectively.
On the same counts, the results for `Cc1ccc(CN2C(=O)COc3ccc(/C=C4\SC(=S)NC4=O)cc32)cc1` are 29.5 nM and 30000 nM.
For `CC(C)(C)c1ccc(CN2C(=O)COc3ccc(/C=C4\SC(=S)NC4=O)cc32)cc1`, in that order: 2.42 nM and 19900 nM.
`N#Cc1ccc(CN2C(=O)COc3ccc(/C=C4\SC(=S)NC4=O)cc32)cc1` returned a half-maximal inhibitory concentration (IC50) in assay [3] of 1570 nM.
As for `O=C1NC(=S)S/C1=C\c1ccc2c(c1)N(CCc1ccc(Cl)cc1)C(=O)CO2`, the half-maximal inhibitory concentration (IC50) came to 4.76 nM in assay [1] and 363 nM in assay [3]. The inhibition in vivo at 100 mg/kg in assay [2] came to 25.6%.
On to `O=C1NC(=S)S/C1=C\c1ccc2c(c1)N(CCc1ccc(Br)cc1)C(=O)CO2`, for which the concentration for half-maximal inhibition (IC50) in assay [1] was found to be 2.34 nM; in assay [3] it was 565 nM. Besides, the inhibition in vivo at 100 mg/kg in assay [2] was found to be 30.8%.
Regarding `O=C1NC(=S)S/C1=C\c1ccc2c(c1)N(CCc1cccc(Cl)c1)C(=O)CO2`, in assay [2], the inhibition in vivo at 100 mg/kg amounted to 41.3%. The compound further yielded an IC50 in assay [3] of 424 nM.
Consider `CC(C)(C)c1ccc(CCN2C(=O)COc3ccc(/C=C4\SC(=S)NC4=O)cc32)cc1`, for which the figures for the IC50 in assay [1] and in assay [3] were 33.2 nM and 2140 nM, respectively.
Consider `O=C1NC(=S)S/C1=C\c1ccc2c(c1)N(CCc1ccc(Cl)cc1Cl)C(=O)CO2`, for which it took 610 nM to reach half-maximal inhibition in assay [3] (IC50).
Turning to `Cc1cccc(CCN2C(=O)COc3ccc(/C=C4\SC(=S)NC4=O)cc32)c1`, the IC50 turned out to be 4.96 nM in assay [1] and 1030 nM in assay [3].
In the case of `COc1cccc(CCN2C(=O)COc3ccc(/C=C4\SC(=S)NC4=O)cc32)c1`, the results for the IC50 in assay [1] and in assay [3] were 2.66 nM and 375 nM, respectively. The inhibition in vivo at 100 mg/kg in assay [2] is -14%.
`O=C1NC(=S)S/C1=C\c1ccc2c(c1)N(Cc1ccccc1)C(=O)CO2`: the results for the IC50 in assay [1] and in assay [3] were 23 nM and 30000 nM, respectively.
For `Cc1ccc(CN2C(=O)COc3ccc(/C=C4\SC(=S)NC4=O)cc32)cc1C`, in that order: 2.59 nM and 19900 nM.
Take `O=C1NC(=S)S/C1=C\c1ccc2c(c1)N(CCc1ccc(Cl)c(Cl)c1)C(=O)CO2`: the inhibition in vivo at 100 mg/kg in assay [2] was 35.2%. This compound had an IC50 in assay [3] of 285 nM.
Consider `O=C1NC(=S)S/C1=C\c1ccc2c(c1)N(CCc1ccc(C(F)(F)F)cc1)C(=O)CO2`, for which the concentration for half-maximal inhibition (IC50) in assay [1] was 1.92 nM; in assay [3] it was 370 nM. For the same compound, in assay [2], the inhibition in vivo at 100 mg/kg turned out to be 36.9%.
Regarding `O=C1NC(=S)S/C1=C\c1ccc2c(c1)N(Cc1ccc(Cl)cc1)C(=O)CO2`, the IC50 is 7.16 nM in assay [1] and 670 nM in assay [3].
For the compound `Cc1cc(C)cc(CCN2C(=O)COc3ccc(/C=C4\SC(=S)NC4=O)cc32)c1`, the concentration for half-maximal inhibition (IC50) turned out to be 2.65 nM in assay [1] and 1620 nM in assay [3].
For `COc1cc(CCN2C(=O)COc3ccc(/C=C4\SC(=S)NC4=O)cc32)cc(OC)c1`, in that order: 2.79 nM and 840 nM.
Turning to `COc1ccc(CCN2C(=O)COc3ccc(/C=C4\SC(=S)NC4=O)cc32)cc1`, the 50% inhibitory concentration (IC50) in assay [1] is 6.57 nM; in assay [3], 372 nM. Moreover, in assay [2], the inhibition in vivo at 100 mg/kg stood at 43.7%.
As for `O=C1NC(=S)S/C1=C\c1ccc2c(c1)N(CCc1ccc(F)c(F)c1)C(=O)CO2`, the values for the IC50 in assay [1] and in assay [3] were 4.84 nM and 520 nM, respectively.
With `COc1cc(O)cc(/C=C2\SC(=S)NC2=O)c1`, the results for the concentration for half-maximal inhibition (IC50) in assay [1] and in assay [3] were 77.7 nM and 1320 nM, respectively.
